Reference: patent publication US11466032B2, “Cytotoxic agents” (FEMTOGENIX LIMITED, priority 2017, dated 2022)

Legend:
[1] = test system: linear 32P-end-labelled HexA DNA; test: DNA interstrand cross-linking assay (denaturing polyacrylamide gel); assay type: biochemical; conditions: overnight incubation at 37° C.
Description: The ability of 26 and 34 to cross-link DNA was determined using an assay involving linear double-stranded HexA. TyrT and MS1 DNA fragments (FIG. 5).
Following denaturation conditions (treatment with formamide and heating at 65° C. for 5 min) the DNA strands were completely separated (see control C2, FIG. 6). The presence of an interstrand cross-link holds the denatured strands in close proximity, and cross-linked adducts therefore run as double-stranded DNA on polyacrylamide gel. Talirine and 34 were tested at >10 different concentrations, and the assay was repeated twice. […] C1 and C2 represent controls where C1 is DNA without formic acid, and C2 is DNA without formic acid, but heated thereby forming single strands. Cross-links are clearly detectable at concentrations as low as 10 nM. Using the same assay, the PBD dimer Talirine was also shown to cross-link DNA down to a concentration of 10 nM (FIG. 7).
The preparation of the DNA fragments (FIG. 5) has been previously described^[4]. Briefly, the sequence which had been cloned into the BamHI site of pUC18 was obtained by cutting with HindIII and EcoRI. Radiolabelled DNA fragments were prepared by filling in the 3′-end of the HindIII site with [α-^32P]dATP using Klenow DNA polymerase (exo-).
The radiolabelled DNA fragment was separated from the remainder of the plasmid DNA on a 6% non-denaturing polyacrylamide gel. […]

[2] = test system: HexA and MS1 DNA fragments; test: DNA footprinting; assay type: binding; conditions: X is any base, Y is G or C, W is A or T; overnight incubation
Description: The sequence selectivity of 26 and 34 was investigated using a modification of the previously established DNA footprinting assay^25. Following an overnight incubation of the ligand-DNA complexes, the mixture was mixed with strand separation buffer containing 10 mM EDTA, 10 mM NaOH, 0.1% bromophenol blue, 80% formamide and incubated at 100° C. for 3 min. The mixture was then immediately cooled on ice and run on an 8% denaturing gel.
Footprinting reactions were performed as previously described^[5] using the DNA fragments HexA and HexB, which together contain all 64 symmetrical hexanucleotide sequences^[6], and MS1 that contains all possible […] tetranucleotide sequences^[7]. The DNA fragments were obtained by cutting the parent plasmids with HindIII and SacI (for HexA and MS1) or EcoRI and PstI (for HexB), and were labelled at the 3′-end of the HindIII or EcoRI sites with [α-^32P]dATP using reverse transcriptase or exo-Klenow fragment. After gel purification, the radiolabelled DNA was dissolved in 10 mM Tris-HCl pH 7.5 containing 0.1 mM EDTA, at a concentration of about 10 c.p.s per μL as determined on a hand held Geiger counter. 1.5 μL of radiolabelled DNA was mixed with 1.5 μL ligand that had been freshly diluted in 10 mM Tris-HCl pH 7.5, containing 10 mM NaCl. […]

Structure (SMILES): CNS(=O)(=O)c1ccc(C2=CCN3C(=O)c4cc(OC)c(OCc5cccc(COc6cc7c(cc6OC)C(=O)N6CC=C(c8ccc(S(=O)(=O)NC)cc8)C[C@H]6C=N7)n5)cc4N=C[C@@H]3C2)cc1 [Compound 34, 4,4′-((6aS,6a′S)-((Pyridine-2,6-diylbis(methylene))bis(oxy))bis(2-methoxy-12-oxo-6a,7,10,12-tetrahydrobenzo[e]pyrido[1,2-α][1,4]diazepine-3,8-diyl))bis(N-methylbenzenesulfonamide)]
- lowest concentration at which DNA interstrand cross-links are detectable [1]: 10 nM
- general code of the footprints (preferred binding sites) [2]: XYWWYWYX
